According to US20030125287A1, “Antisense oligonucleotides and methods to induce tumor cell death” (Hybridon, Inc., priority 2001, published 2003):
“Also recorded” adds a separate entry of the source. Oligonucleotides are written 5' to 3', each unit as a sugar letter and its base; * is a phosphorothioate linkage, no mark a phosphodiester; rarer units and linkages stand in square brackets, end groups in braces. Plain capitals give the bases only. d = 2'-deoxy (DNA)

Tests used:
Type in all cases: cell-based, human
[1] = system: TC620 cells; assay: Propidium iodide staining, nuclear morphology of TC620 cells; details: for nuclear morphology by PI staining: 600 nM (FIG. 7); for number of cells in metaphase, with zVAD-fmk compared with oligonucleotide alone: 600 nM plus zVAD-fmk (FIG. 8B)
Experimental: Propidium iodide (PI) staining was performed to investigate changes in nuclear morphology caused by treatment of TC620 cells with survivin antisense oligonucleotides. […] TC620 cells were treated with lipofectin (FIG. 7A), or 600 nM mismatch oligonucleotide 1132 (FIG. 7B), survivin antisense oligonucleotide 904 (FIGS. 7C and 7E), or 906 (FIG. 7D), and stained with PI. Quantification results for TC620 cells treated with 600 nM survivin antisense oligonucleotide 904, 906, or mismatch oligonucleotide 1132, alone or in the presence of zVAD-fmk, are shown in FIGS. 8A-B. Cells in metaphase were identified as those with chromosomes aligned on the metaphase plate.
Survivin antisense oligonucleotide-treated cells were fixed with 4% paraformaldehyde for 30 min at room temperature, washed with 1×TBS, permeabilized with 0.1% Triton X-100 for 30 min and treated with 10 μg/ml DNasc free RNase A (Sigma) for 60 min. Nuclei were stained with 200 μg /ml PI for 30 min at 4° C. and washed twice with 1×TBS. Nuclear morphology was assessed on an inverted Olympus 1×70 fluorescence microscope equipped with phase and epifluorescence optics. For each treatment about 600 nuclei were scored as normal, condensed (apoptotic), or abnormal (macronuclei, multilobed) on 15 random, 40×objective fields in duplicate. Quantification results are mean±SEM obtained from two independent experiments performed in duplicate.

[2] = system: TC620 cells; assay: TUNEL assay in TC620 cells
Experimental: To confirm the results of the PARP data that survivin down-regulation induced apoptosis, a TUNEL assay was performed. The TUNEL reaction preferentially labels cleaved genomic DNA generated during apoptosis, by the addition of fluorescein dUTP at strand breaks. The TUNEL assay was performed on lipofectin, mismatch oligonucleotide 1132, and survivin antisense oligonucleotide-treated TC620 cells. The percentages of TUNEL-positive cells treated with survivin antisense oligonucleotides 904 or 906 at 400 nM concentration were 52% and 54%, respectively. At 600 nM, 63% of survivin antisense oligonucleotide 904- and 906-treated TC620 cells were TUNEL-positive. Only 4% of the cells were TUNEL-positive in the presence of lipofectin or mismatch oligonucleotide 1132.
The TUNEL assay was performed to assess apoptotic cell death in survivin antisense oligonucleotide-treated TC620 cells using the In Situ Cell Death Detection Kit, Fluorescein (Roche Molecular Biochemicals, Indianapolis, Ind.). The TUNEL reaction preferentially labels cleaved genomic DNA generated during apoptosis, by the addition of fluorescein dUTP at strand breaks. Lipofectin, mismatch oligonucleotide 1132 or survivin antisense oligonucleotide-treated TC620 cells were fixed and permeabilized as described for PI staining. Cells were washed and incubated in the TUNEL reaction mixture, prepared according to the manufacture's recommendations, for 1 h at 37° C. Omission of the terminal deoxynucleotidyl transferase in the label solution served as a negative control for the TUNEL fluorescence staining. Cells were washed twice and counterstained with the DNA specific dye DAPI (1:1000 of a 1 mg/ml stock; 15 min at room temperature). Cells were examined with an Olympus 1×70 inverted microscope. For each treatment 15 random, 40×objective fields consisting of about 1000 cells were examined in duplicate chamber slides. TUNEL-positive nuclei were expressed as a percent of the total number of cells per individual field.

[3] = system: MSN cells; assay: Trypan blue assay (cell death) in MSN cells; details: for percentage of cells Trypan blue positive: MSN cells
Experimental: The role of survivin as an inhibitor of apoptosis and as a survival protein for tumors was investigated by examining whether the down-regulation of survivin was sufficient to induce cell death in MSN cells. Following transfection with lipofectin, different concentrations of survivin antisense oligonucleotide 904 (200 nM, 400 nM, 600 nM), or the mismatched oligonucleotide 1132 (400 nM and 600 nM), the number of Trypan blue positive cells (only dead cells are stained by the Trypan blue stain) were counted 48 hours after treatment. The number of dead cells was assessed relative to the lipofectin-treated control cells. In the presence of 200 nM, 400 nM, and 600 nM concentrations of antisense oligonucleotide 904, the percentage of cells that were Trypan blue positive were 52%, 59% and 62%, respectively (FIG. 4A). The mismatched oligonucleotide 1132 (400 nM and 600 nM) was similar to the lipofectin control treatment, wherein 23% (400 nM) and 22% (600 nM) of the cells were Trypan blue-positive. About 6% of the cells in the untreated control were Trypan blue positive.
In another experiment, following transfection with lipofectin, mismatched oligonucleotide 1132 (600 nM), or survivin antisense oligonucleotide 904 or 906 (600 nM), the numbers of Trypan blue positive cells (dead cells) were counted 48 h post-treatment. In the presence of 600 nM survivin antisense oligonucleotide 904 and 906, the percentages of cells that were Trypan blue positive were 73% and 81%, respectively (FIG. 4B). Upon treatment with lipofectin or the mismatched oligonucleotide 1132, only 7-11% of the cells were Trypan blue positive.
Further experiments were conducted to examine whether survivin antisense oligonucleotide-induced cell death could be blocked by the broad-spectrum caspase inhibitor zVAD-fmk. MSN cells were treated with lipofectin or 600 nM survivin antisense oligonucleotide 904, 906, or mismatch oligonucleotide 1132 alone, or co-treated with 20 μM zVAD-fmk for 48 h, and stained with 0.04% Trypan blue.
(§1) Cells were harvested 48 hours after survivin antisense treatment, stained with 0.04% Trypan blue (GIBCO), and counted on a hemocytometer. The number of Trypan blue positive cells relative to the total number of cells in each field was obtained and the data were expressed as a percentage of dead cells relative to the total cell number. Individual experiments were performed in triplicate. MSN cell studies were performed three times, while studies in TC620 cells were performed once.

[4] = system: TC620 cells; assay: Trypan blue assay (cell death) in TC620 cells
Experimental: At 100 nM, 200 nM, and 400 nM, the percentage of dead cells was 28%, 36%, and 62%, respectively. The percentages of Trypan blue-positive cells treated with 200 nM (8%) and 400 nM (7.5%) mismatched oligonucleotide 1132 were similar to the lipofectin control (6%). Cells were treated with lipofectin, survivin antisense oligonucleotide 904 at 100, 200, or 400 nM, or mismatched oligonucleotide 1132 at 200 nM or 400 nM concentrations. Cells were harvested 48 hours after the treatment and stained with 0.04% Trypan blue as described for FIG. 4.
To further examine whether cell death induced by treatment of TC620 cells with survivin antisense oligonucleotides occurs via a caspase-dependent mechanism, another experiment was performed to investigate the effect of a caspase inhibitor on cell death. […] TC620 cells were treated with lipofectin or 600 nM survivin antisense oligonucleotide 904, 906, or mismatch oligonucleotide 1132 alone, or co-treated with 20 μM zVAD-fmk.
as §1

[5] = 600 nM co-treated with 20 μM zVAD-fmk, 48 h (FIG. 4B)
[6] = 600 nM co-treated with 20 μM zVAD-fmk (FIG. 6B)

Row | Substance | nuclear morphology by PI staining [1] | number of cells in metaphase, with zVAD-fmk compared with oligonucleotide alone [1] | percentage of TUNEL-positive cells ([2]; 400 nM) | percentage of TUNEL-positive cells ([2]; 600 nM) | cell death, Trypan blue positive cells ([3]; MSN cells (FIG. 4A)) | percentage of cells Trypan blue positive ([3]; 200 nM, 48 hours (FIG. 4A)) | percentage of cells Trypan blue positive ([3]; 400 nM, 48 hours (FIG. 4A)) | percentage of cells Trypan blue positive ([3]; 600 nM alone, 48 h (FIG. 4B)) | percentage of cells Trypan blue positive [3, 5] | percentage of cells Trypan blue positive ([3]; 600 nM, 48 hours (FIG. 4A)) | percentage of dead (Trypan blue-positive) cells ([4]; 100 nM, 48 hours (FIG. 6A)) | percentage of dead (Trypan blue-positive) cells ([4]; 200 nM, 48 hours (FIG. 6A)) | percentage of dead (Trypan blue-positive) cells ([4]; 400 nM, 48 hours (FIG. 6A)) | percentage of Trypan blue positive cells ([4]; 600 nM alone (FIG. 6B)) | percentage of Trypan blue positive cells [4, 6] | cell death, Trypan blue positive cells ([4]; 48 hours (FIG. 6A)) | percentage of apoptotic cells (chromatin fragmentation, apoptotic bodies) by PI staining ([1]; 600 nM (FIG. 8A)) | percentage of cells with abnormal (multiple multilobed) nuclei by PI staining ([1]; 600 nM (FIG. 8A)) | percentage of TUNEL-positive cells ([2]; concentration not given)
1 | d(TCTTGGCTCTTTCTCTGTCC) (antisense dT*dC*dT*dT*dG*dG*dC*dT*dC*dT*dT*dT*dC*dT*dC*dT*dG*dT*dC*dC) [Oligo 904, 20-mer phosphorothioate survivin antisense oligonucleotide, complementary to survivin mRNA 5248-5267] | apoptotic nuclei; also recorded: abnormal macronuclei that are multilobed | approximate two-fold increase | 52% | 63% | dose-dependent increase in cell death | 52% | 59% | 73% | 73% | 62% | 28% | 36% | 62% | 70% | 11% | concentration-dependent increase in Trypan blue-positive (dead) cells; also recorded: dose-dependent increase in cell death | – | – | –
2 | d(GCTTCCCAGTCACATCCTGT) (antisense dG*dC*dT*dT*dC*dC*dC*dA*dG*dT*dC*dA*dC*dA*dT*dC*dC*dT*dG*dT) [Oligo 906, 20-mer phosphorothioate survivin antisense oligonucleotide, complementary to survivin mRNA 11897-11916] | abnormal macronuclei that are multilobed | approximate two-fold increase | 54% | 63% | – | – | – | 81% | 74% | – | – | – | – | 67% | 15% | – | – | – | –
3 | d(GCACCTAGTCTCCCTGCACC) (DNA, all phosphorothioate, methylation of C not given here) [Oligo 1132, mismatched phosphorothioate control oligonucleotide, not complementary to survivin mRNA, reference compound] | normal nuclear morphology | did not affect the number of cells in metaphase | – | – | – | – | 23% | 7-11% | – | 22% | – | 8% | 7.5% | – | – | – | 2% | 1% | 4%
